Legend:
Open field test = assay type: in vivo, mouse; conditions: 10 mg/kg intraperitoneally, test 30 minutes after injection, 30-minute test
Procedure: All experiments were performed using male and female C57BL/6 mice of 4 to 6 weeks of age. An open field test was performed on male mice of 6 to 7 weeks. Animals were maintained with circulating 12/12-h day/night, while daytime starts at 07:00. Three or five animals were housed per one cage. Free available food and water were fed to the mice under specific pathogenic-microorganism free (SPF) conditions. The animal maintenance protocol and all experimental procedures were approved by the Institutional Animal Care and Use Committee (IACUC) of Seoul National University.
In an open field test, we video-recorded a movement of a 7 to 10-week-old mouse in a white plastic chamber (40×40×40 cm) in a darkened room for 30 minutes. Then, the moving distance of the mouse was measured using Ethovision XT (Noldus) software.
To determine the change of the activity of the mice by syringaresinol, we injected syringaresinol at a concentration of 10 mg/kg intraperitoneally into the mice. After 30 minutes, we measured the activity of the mice via an open field test. In this connection, control was injected with DMSO, a solvent used for dissolving syringaresinol. The open field test was conducted for 30 minutes. The activity of the mouse was checked at a 5-minute interval. Further, during the 30-minute test, the total movement distance of the mouse was measured.

hippocampal CA1 region = test: Picrotoxin-induced epilepsy activity in intact hippocampal slices; assay type: cell-based, mouse; conditions: picrotoxin 50 μM
Procedure: Selective inhibition of excitatory synaptic transmission rather than inhibitory synapse transmission means that SYR may change the balance between synapse excitation and inhibition in neurons. We checked whether this synapse regulation might inhibit epilepsy pathogenic activity caused by excessive excitement of the neural network. To model an epilepsy pathogenic neuron network in experimental conditions (in vitro), the hippocampal slice was prepared while the CA3 region was left. During recording, ACSF containing picrotoxin (50 μM) was perfused in intact hippocampal slices. […] Continuous picrotoxin perfusion (>20 min) discharged an epilepsy pathogenic excitation wave. This wave was characterized by a three to seven population spikes (PS) waveform of a decreasing amplitude (FIG. 7C).

ERK = test: Western blot of ERK activity (p-ERK/ERK) in hippocampal slices; assay type: cell-based, mouse; conditions: 100, 300 and 500 μM, 10 minutes treatment
Procedure: After removing the CA3 region from the hippocampal slice surgically, the slices were recovered in the 36° C. and normal ACSF for 4 hours. Each sample was treated with each drug for 10 minutes, and then frozen using liquefied nitrogen. Western blot analysis of drug-induced changes in ERK activity in the hippocampal slices was performed in a manner as previously described (Song et al., 2017). The slices were homogenized using a probe sonicator in a cold lysis buffer about at a temperature of ice. The lysis buffer contained 50 mM HEPES, 100 mM NaCl, 5 mM EGTA, 5 mM EDTA, 1% Triton X-100, a phosphatase inhibitor mixer (GenDEPOT, TX, USA) and a protease inhibitor mixer (Sigma-Aldrich, MO, USA). The total protein concentration of the homogenate was determined by Bradford protein assay (Bio-Rad, CA, USA). Samples containing 10 to 12 μg of protein were separated using SDS-PAGE gels and transferred to the nitrocellulose membrane. The membrane was sequentially reacted with a primary antibody (p-ERK and ERK; Cell Signaling Technologies, MA, USA) and a secondary antibody (Jackson ImmunoResearch, USA) having horse radish peroxidase (HRP) coupled thereto. HRP signals were detected on an enhanced chemiluminescence (ECL) substrate (GE Healthcare, UK) and then quantified with MetaMorph software (Molecular Devices, CA, USA). […]

[1] = system: CA1 neurons (inhibitory synaptic transmission); test: Miniature IPSC (mIPSC) recording in CA1 neurons; assay type: cell-based, mouse
Procedure: (§1) A miniature EPSC (mEPSC) was measured at −70 mV with a pipette solution. In this connection, the pipette solution contained 110 mM K-gluconate, 20 mM KCl, 8 mM NaCl, 10 mM HEPES, 0.5 mM QX-314-C1, 4 mM Mg-ATP, 0.3 mM Na-GTP and 0.5 mM EGTA. The solution had pH 7.25 and 290 mOsm/kg. Voluntary action potentials and IPSCs were blocked by TTX (1 μM) and picrotoxin (50 μM), respectively. For mIPSC recording, the K-gluconate in the pipette solution was replaced with the KCl having the same number of moles as the K-gluconate.
The effect of SYR on the miniature IPSC (mIPSC) was checked.

[2] = system: Ca^2+ channel in CA1 neurons; test: Ca2+ channel current (Ba2+ current) recording in CA1 neurons; assay type: cell-based, mouse; conditions: 100 μM; depolarization −90 mV to −10 mV, 50 ms
CA1 neurons = test: Miniature EPSC (mEPSC) recording in CA1 neurons; assay type: cell-based, mouse
Procedure: as §1
Next, the effect of SYR on miniature EPSC (mEPSC) in CA1 neurons was examined.

SMILES: COc1cc(C2OCC3C(c4cc(OC)c(O)c(OC)c4)OCC23)cc(OC)c1O (centres unmarked) [SYR, syringaresinol]
- activity of the mouse as fraction of control (movement distance) (Open field test): ¼
- amplitude of first epilepsy pathological excitation wave (first PS) (hippocampal CA1 region): decreased
- area of the epilepsy pathological fEPSP (population spike) (hippocampal CA1 region): decreased
- epilepsy pathological excitation wave (hippocampal CA1 region): significantly inhibited
- slope of fEPSP in epilepsy-induced hippocampal slice (hippocampal CA1 region): rapidly reduced
- ERK activity (ERK): did not affect ERK activity
- amplitude of mIPSC [1]: did not affect
- frequency of mIPSC [1]: did not affect
- Ba^2+ current mediated by the Ca^2+ channel [2]: rapidly reduced
- mEPSC amplitude (CA1 neurons): did not change
- mEPSC frequency (CA1 neurons): did not change

— patent US11000501B2, “Composition for preventing or treating neurological and mental disorders, containing syringaresinol” (SEOUL NATIONAL UNIVERSITY R&DB FOUNDATION, priority 2016, dated 2021)
